Results as given in PubChem BioAssay AID248 (DTP/NCI, 2004).
“And” between values parts separate entries of the source, which are not always exact repeats. Identical values can stand only once. Toxic doses and inconclusive results are not listed. Cut-off read from the data, not from the text of the source: active = T/C of 150% or more; inactive = T/C below 125%.

Tested on: L1210 leukemia ip in BDF1 mice, survival T/C
Test: NCI In Vivo Anticancer Drug Screen. Data for tumor model L1210 Leukemia (intraperitoneal) in B6D2F1 (BDF1) mice
Settings: endpoint: mean survival time, higher = longer survival
Outline: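 Tumor was transplanted into mice, which were then dosed with test compound or vehicle alone. Survival was recorded for each group, and the treated figure was expressed relative to the control figure.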

[1] = dose: 100.0 mg/kg/injection, schedule: Q04DX003 (ip), vehicle: saline
[2] = dose: 200.0 mg/kg/injection, schedule: Q04DX003 (ip), vehicle: saline
[3] = dose: 400.0 mg/kg/injection, schedule: Q04DX003 (ip), vehicle: saline

Measured: T/C

CCCCCCCCCCCCCc1nc(N)nc(NCCCC)n1
inactive: dose: 100.0 mg/kg/injection, schedule: Q04DX002 (ip), vehicle: Klucel (hydroxypropylcellulose) (HPC) 92 % of control | dose: 200.0 mg/kg/injection, schedule: Q04DX002 (ip), vehicle: Klucel (hydroxypropylcellulose) (HPC) 89 % of control | dose: 400.0 mg/kg/injection, schedule: Q04DX002 (ip), vehicle: Klucel (hydroxypropylcellulose) (HPC) 100 % of control

COc1ccc(C2NC(=O)CCC2N)cc1OC (stereo not given)
inactive: dose: 100.0 mg/kg/injection, schedule: Q01DX001 (ip), vehicle: saline with Tween-80 99 % of control | dose: 200.0 mg/kg/injection, schedule: Q01DX001 (ip), vehicle: saline with Tween-80 101 % of control | dose: 400.0 mg/kg/injection, schedule: Q01DX001 (ip), vehicle: saline with Tween-80 95 % of control

O=C(/C=C/c1cccnc1)NCC(O)CO (stereo not given)
inactive: dose: 100.0 mg/kg/injection, schedule: Q01DX009 (ip), vehicle: saline 101 % of control | [1] 108 % of control | dose: 200.0 mg/kg/injection, schedule: Q01DX009 (ip), vehicle: saline 97 % of control | [2] 105 % of control | dose: 400.0 mg/kg/injection, schedule: Q01DX009 (ip), vehicle: saline 100 % of control | [3] 96 % of control

Cc1ccc(NC(=S)NCCO)cc1
inactive: dose: 100.0 mg/kg/injection, schedule: Q04DX003 (ip), vehicle: saline with Tween-80 100 % of control | dose: 200.0 mg/kg/injection, schedule: Q04DX003 (ip), vehicle: saline with Tween-80 102 % of control | dose: 400.0 mg/kg/injection, schedule: Q04DX003 (ip), vehicle: saline with Tween-80 97 % of control

COC(=O)c1c(O)cc(OC)cc1OC
inactive: dose: 100.0 mg/kg/injection, schedule: Q01DX009 (ip), vehicle: other 108 % of control | [1] 95 % of control | dose: 200.0 mg/kg/injection, schedule: Q01DX009 (ip), vehicle: other 108 % of control | [2] 97 % of control | dose: 400.0 mg/kg/injection, schedule: Q01DX009 (ip), vehicle: other 108 % of control | [3] 111 % of control

CCOC1=CCCCC1
inactive: dose: 50.0 mg/kg/injection, schedule: Q01DX001 (ip), vehicle: saline 101 % of control | dose: 100.0 mg/kg/injection, schedule: Q01DX001 (ip), vehicle: saline 103 % of control | dose: 200.0 mg/kg/injection, schedule: Q01DX001 (ip), vehicle: saline 103 % of control | dose: 400.0 mg/kg/injection, schedule: Q01DX001 (ip), vehicle: saline 101 % of control

COc1ccc(C(=Nc2ccc(C)cc2)c2ccccc2)cc1
inactive: dose: 12.0 mg/kg/injection, schedule: Q01DX009 (ip), vehicle: Klucel (hydroxypropylcellulose) (HPC) 105 % of control | dose: 12.5 mg/kg/injection, schedule: Q01DX009 (ip), vehicle: Klucel (hydroxypropylcellulose) (HPC) 102 % of control | dose: 25.0 mg/kg/injection, schedule: Q01DX009 (ip), vehicle: Klucel (hydroxypropylcellulose) (HPC) 105 % of control | dose: 50.0 mg/kg/injection, schedule: Q01DX009 (ip), vehicle: Klucel (hydroxypropylcellulose) (HPC) 97 % of control and 113 % of control | dose: 100.0 mg/kg/injection, schedule: Q01DX009 (ip), vehicle: Klucel (hydroxypropylcellulose) (HPC) 122 % of control | dose: 100.0 mg/kg/injection, schedule: Q04DX003 (ip), vehicle: Klucel (hydroxypropylcellulose) (HPC) 101 % of control | dose: 200.0 mg/kg/injection, schedule: Q01DX009 (ip), vehicle: Klucel (hydroxypropylcellulose) (HPC) 107 % of control | dose: 200.0 mg/kg/injection, schedule: Q04DX003 (ip), vehicle: Klucel (hydroxypropylcellulose) (HPC) 98 % of control | dose: 400.0 mg/kg/injection, schedule: Q01DX009 (ip), vehicle: Klucel (hydroxypropylcellulose) (HPC) 107 % of control | dose: 400.0 mg/kg/injection, schedule: Q04DX003 (ip), vehicle: Klucel (hydroxypropylcellulose) (HPC) 98 % of control
